Patent US5565435A (Kabushiki Kaisha Hayashibara Seibutsu Kagaku Kenkyujo, priority 1991, dated 1996)
≈ marks a conversion by molar mass, not a printed value.

Legend:
[1] = Antioxidation activity (hydroperoxide formed by oxidation of linoleic acid, HPLC); settings: 200 ppm, 50° C., light-shielded
Procedure: Ten ml of about one % linoleic acid in ethanol solution, 10 ml of 50 mM phosphate buffer and 5 ml water were mixed, and 5 ml aliquots of the mixture were distributed to 5 ml-flasks. […] A half ml of solution was sampled from each flask at a prescribed time interval, and the sampled solution was subjected to high-performance liquid chromatography (HPLC) to analyze the amount of hydroperoxide which was formed as a result of the oxidation of linoleic acid. The conditions used in the analysis of hydroperoxide were as follows:
Apparatus : WATERS MODEL M-6000A, a pump system commercialized by Japan Waters Ltd., Tokyo, Japan;
Column : ODS-M column, a column commercialized by Shimadzu Techno-Research,Inc., Kyoto, Japan;
Column temperature : 35° C.
Eluate : water:methanol:acetic acid =75:25:0.1
Detection wave length: at 235 nm

Solubility in solvent = assay type: physicochemical; settings: 25° C. water (pH 7)

Cc1c(C)c2c(c(C)c1O)CCC(C)(CCCC(C)CCCC(C)CCCC(C)C)O2 (racemic) [dl-α-Tocopherol]
Relative intensity determined with the peak area corresponding to hydroperoxide, sampling day 0 ([1]; day 0, Control 0.3): 0.3 | Relative intensity determined with the peak area corresponding to hydroperoxide, sampling day 4 ([1]; day 4, Control 1.5): 1.1 | Relative intensity determined with the peak area corresponding to hydroperoxide, sampling day 7 ([1]; day 7, Control 5.3): 4.5 | Relative intensity determined with the peak area corresponding to hydroperoxide, sampling day 8 ([1]; day 8, Control 7.1): 6.0

O=c1c(O)c(-c2ccc(O)c(O)c2)oc2cc(O)cc(O)c12 [quercetin]
solubility (Solubility in solvent): ~2 µg/mL (≈ 6.62 µM)
